Measured values published in patent publication USRE40086E1, “Method for treating bacterial infection with novel 7-substituted-9-substituted amino 6-demethyl-6-deoxytetracyclines” (Wyeth Holdings Corporation, priority 1991, dated 2008).
Structures can show the parent of a compound that is named as a salt.

Experiments:
[1] = test system: E. faecalis UBMS 90-6 (tetM); experiment: MIC, agar dilution; assay type: cell-based; settings: Enterococcus faecalis
[2] = test system: E. faecalis UBMS 90-7 (tetM); experiment: MIC, agar dilution; assay type: cell-based; settings: Enterococcus faecalis
[3] = test system: S. aureus IVES 2943 (meth. resistant); experiment: MIC, agar dilution; assay type: cell-based; settings: S. aureus IVES 2943; Table IA; unit assumed
Providencia spp. = experiment: MIC vs recent clinical and agricultural isolates (Table V, KK); assay type: cell-based; settings: [13] tested
E. coli PRP1 TetA = experiment: MIC, agar dilution (Table IA); assay type: cell-based; settings: unit assumed
E. coli BAJ9003 = experiment: MIC, agar dilution (Table IA); assay type: cell-based; settings: unit assumed
E. coli #311 (MP) = experiment: MIC, agar dilution (Table IA); assay type: cell-based; settings: unit assumed
E. coli J3272 TetD = experiment: MIC, agar dilution (Table IA); assay type: cell-based; settings: unit assumed
[4] = test system: Wild Type S30 extract, E. coli strain MRE600 (tetracycline sensitive); experiment: E. coli in vitro transcription and protein translation, 35S-methionine incorporation (Table VIII)

SMILES | MIC [1] [µg/mL] | MIC [2] [µg/mL] | Antibacterial activity (MIC) [3] [µg/mL] | MIC (range over isolates) (Providencia spp.) [µg/mL] | Antibacterial activity (MIC) (E. coli PRP1 TetA) [µg/mL] | Antibacterial activity (MIC) (E. coli BAJ9003) [µg/mL] | Antibacterial activity (MIC) (E. coli #311 (MP)) [µg/mL] | Antibacterial activity (MIC) (E. coli J3272 TetD) [µg/mL] | % INHIBITION Wild Type S30 ([4]; 0.03 mg/ml) [%] | % INHIBITION Wild Type S30 ([4]; 0.06 mg/ml) [%] | % INHIBITION Wild Type S30 ([4]; 0.5 mg/ml) [%] | % INHIBITION Wild Type S30 ([4]; 1.0 mg/ml) [%]
CN(C)c1ccc(O)c2c1C[C@H]1C[C@H]3[C@H](N(C)C)C(O)=C(C(N)=O)C(=O)[C@@]3(O)C(O)=C1C2=O [Compound O, 7-(Dimethylamino)-6-demethyl-6-deoxytetracycline hydrochloride (minocycline hydrochloride), reference compound] | 8 | 8 | – | – | – | – | – | – | – | – | – | –
CN(C)CC(=O)Nc1cc(N(C)C)c2c(c1O)C(=O)C1=C(O)[C@]3(O)C(=O)C(C(N)=O)=C(O)[C@@H](N(C)C)C3CC1C2.Cl.Cl (stereo partly drawn) [KK, [4S-(4alpha,12aalpha)]-4,7-Bis(dimethylamino)-9-[[(dimethylamino)acetyl]amino]-1,4,4a,5,5a,6,11,12a-octahydro-3,10,12,12a-tetrahydroxy-1,11-dioxo-2-naphthacenecarboxamide dihydrochloride] | – | – | 1 | 2 to 8 | 1 | 0.03 | 0.25 | 0.12 | 81 | 82 | 90 | 92
